Results taken from patent US12036281B2 (ONEHEALTHCOMPANY, INC., priority 2019, dated 2024).

Assays:
[1] = test system: cancer; test: Treatment of canine cancers with targeted drug, disease progression and overall survival compared to historical controls; type: in vivo; conditions: alone or in combination with other anti-cancer agents
Protocol: Canine subjects with cancer were treated with Rapamycin alone or in combination with other anti-cancer agents (Tables 3 and 12-26). The subjects were administered Rapamycin orally with a starting dose of 0.1 mg/kg/day and were monitored for disease progression compared to historical controls.
Canine subjects with cancer were treated with Dasatinib alone or in combination with other anti-cancer agents (Tables 4 and 12-26). The subjects were administered Dasatinib orally with a starting dose of 0.5-0.7 mg/kg/day and were monitored for disease progression compared to historical controls.
Canine subjects with cancer were treated with Vorinostat alone or in combination with other anti-cancer agents (Tables 7 and 12-26). The subjects were administered Vorinostat orally with a starting dose of 30-60 mg/kg/every other day and were monitored for disease progression compared to historical controls.
Canine subjects with cancer were treated with Crizotinib alone or in combination with other anti-cancer agents (Table 9 and 12-26). The subjects were administered Crizotinib orally with a starting dose of 1 mg/kg/day-2 mg/kg/day and were monitored for disease progression compared to historical controls.
Canine subjects with cancer were treated with Sorafenib alone or in combination with other anti-cancer agents (Tables 10 and 12-26). The subjects were administered Sorafenib orally with a starting dose of 1 mg/kg/day-3 mg/kg/day or 1 mg/kg/day-3 mg/kg/week and were monitored for disease progression compared to historical controls.

[2] = Number and type of adverse effects reported in treated canines; type: in vivo; conditions: canine subjects with cancer; for subjects with clinically reported outcomes that experienced adverse effects: diarrhea, vomiting, inappetence, lethargy, skin lesions, liver enzymes, cardiac toxicity, hemorrhagic gastroenteritis monitored, cohorts 192, 94, 162, 275, 89, 83, 9 subjects
Protocol: Canine subjects with cancer were treated with pharmaceutical compositions comprising Rapamycin and were monitored for adverse effects including: diarrhea, vomiting inappetence, lethargy, skin lesions, progressive liver enzyme evaluations, increased cardiac toxicity and hemorrhagic gastroenteritis.
Canine subjects with cancer were treated with pharmaceutical compositions comprising Dasatinib and were monitored for adverse effects including: diarrhea, vomiting inappetence, lethargy, skin lesions, progressive liver enzyme evaluations, increased cardiac toxicity and hemorrhagic gastroenteritis.
Canine subjects with cancer were treated with pharmaceutical compositions comprising Vorinostat and were monitored for adverse effects including: diarrhea, vomiting inappetence, lethargy, skin lesions, progressive liver enzyme evaluations, increased cardiac toxicity and hemorrhagic gastroenteritis.
Canine subjects with cancer were treated with pharmaceutical compositions comprising Crizotinib and were monitored for adverse effects including: diarrhea, vomiting inappetence, lethargy, skin lesions, progressive liver enzyme evaluations, increased cardiac toxicity and hemorrhagic gastroenteritis.
Canine subjects with cancer were treated with pharmaceutical compositions comprising Sorafenib and were monitored for adverse effects including: diarrhea, vomiting inappetence, lethargy, skin lesions, progressive liver enzyme evaluations, increased cardiac toxicity and hemorrhagic gastroenteritis.

Row | SMILES | subjects with clinically reported outcomes that experienced adverse effects [2] [%] | also measured
1 | C[C@@H](Oc1cc(-c2cnn(C3CCNCC3)c2)cnc1N)c1c(Cl)ccc(F)c1Cl [Crizotinib] | 43 | overall survival compared to control subjects ([1]; Crizotinib orally, starting dose 1 mg/kg/day-2 mg/kg/day): significant improvement
2 | Cc1nc(Nc2ncc(C(=O)Nc3c(C)cccc3Cl)s2)cc(N2CCN(CCO)CC2)n1 [Dasatinib] | 31 | 
3 | Cc1ccc(NC(=O)c2ccc(CN3CCN(C)CC3)cc2)cc1Nc1nccc(-c2cccnc2)n1 [Imatinib] |  | overall survival compared to control subjects ([1]; Imatinib orally, starting dose 10 mg/kg/day): significant improvement
4 | CS(=O)(=O)CCNCc1ccc(-c2ccc3ncnc(Nc4ccc(OCc5cccc(F)c5)c(Cl)c4)c3c2)o1 [Lapatinib] | 22 | overall survival compared to control subjects ([1]; Lapatinib orally, starting dose 5-10 mg/kg/day): significant improvement
5 | CO[C@H]1C[C@@H]2CC[C@@H](C)[C@@](O)(O2)C(=O)C(=O)N2CCCC[C@H]2C(=O)O[C@H]([C@H](C)C[C@@H]2CC[C@@H](O)[C@H](OC)C2)CC(=O)[C@H](C)/C=C(\C)[C@@H](O)[C@@H](OC)C(=O)[C@H](C)C[C@H](C)/C=C/C=C/C=C/1C [Rapamycin] | 21 | 
6 | CNC(=O)c1cc(Oc2ccc(NC(=O)Nc3ccc(Cl)c(C(F)(F)F)c3)cc2)ccn1 [Sorafenib] |  | overall survival compared to control subjects ([1]; Sorafenib orally, starting dose 1 mg/kg/day-3 mg/kg/day or 1 mg/kg/day-3 mg/kg/week): significant improvement; subjects with clinically reported outcomes that experience adverse effects ([2]; result in words): A minority of subjects
7 | CC(=O)Nc1cccc(-n2c(=O)n(C3CC3)c(=O)c3c(Nc4ccc(I)cc4F)n(C)c(=O)c(C)c32)c1 [Trametinib] | 24 | 
8 | O=C(CCCCCCC(=O)Nc1ccccc1)NO [Vorinostat] | 34 | overall survival compared to control subjects ([1]; Vorinostat orally, starting dose 30-60 mg/kg/every other day): significant improvement
